These results are taken from ChEMBL document CHEMBL5528064, “Invention of MK-7845, a SARS-CoV-2 3CL Protease Inhibitor Employing a Novel Difluorinated Glutamine Mimic” (J Med Chem, 2024).

Bounds are passed on as bounds.

For data set [1], the target named is Replicase polyprotein 1ab (Severe acute respiratory syndrome coronavirus 2, UniProt P0DTD1). Description: Inhibition of wild type recombinant SARS-CoV-2 3CLpro (1 to 306 residues) expressed in Escherichia coli (DE3) competent cells using CP488-ESATLQSGLRKAK-(CPQ2)-NH2 as substrate preincubated for 30 mins followed by substrate addition and measured after 4 hrs by FRET assay.

Data set [2] addresses T1, Nuclear receptor subfamily 1 group I member 2 (Homo sapiens, UniProt O75469).
T1 sequence (O75469 whole entry): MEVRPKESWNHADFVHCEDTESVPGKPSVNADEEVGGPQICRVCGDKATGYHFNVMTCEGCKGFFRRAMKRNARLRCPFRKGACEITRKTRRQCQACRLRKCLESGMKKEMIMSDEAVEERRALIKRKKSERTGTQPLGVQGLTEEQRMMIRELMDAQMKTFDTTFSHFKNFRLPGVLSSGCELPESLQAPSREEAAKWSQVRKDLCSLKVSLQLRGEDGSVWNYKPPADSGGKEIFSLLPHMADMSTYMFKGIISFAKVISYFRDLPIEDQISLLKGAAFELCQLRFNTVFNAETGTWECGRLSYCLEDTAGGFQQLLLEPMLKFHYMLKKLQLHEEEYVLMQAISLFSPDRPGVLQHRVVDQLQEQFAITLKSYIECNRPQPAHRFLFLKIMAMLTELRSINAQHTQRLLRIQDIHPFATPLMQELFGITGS
Description: Activation of PXR (unknown origin). The data set is classed as toxicity.

Data set [3] has as its target CYP3A4 (Homo sapiens, UniProt P08684). Put plainly: Ratio of IC50 for time dependent inhibition of CYP3A4 in human liver microsomes incubated for 30 mins in presence of NADPH to IC50 for time dependent inhibition of CYP3A4 in human liver microsomes incubated for 30 mins in absence of NADPH. More on the design: species or system Microsome. Conditions: read-out: Ratio IC50.

The nature of data set [4]: MRT in dog at 3 mg/kg, po or 1 mg/kg, iv measured upto 24 hrs by LC-MS analysis. Conditions: in vivo. The format is ADME, organism-based, Canis lupus familiaris.
Data set [5] in a line: Oral bioavailability in rat at 3 mg/kg measured upto 24 hrs by LC-MS analysis. Conditions: in vivo. The format is ADME, organism-based.
Data set [6] can be described thus: Oral bioavailability in Wistar-Han rat at 2 mg/kg. The data set is classed as ADME, organism-based. Conditions: in vivo.
Data set [7] is described as follows: Apparent permeability in MDCK cells. The data set is classed as ADME, cell-based, Canis lupus familiaris. The note with it: dog.
A short description of data set [8]: Oral bioavailability in rat. The data set is classed as ADME, organism-based. The note with it: in vivo.

For orientation: IC50 means the midpoint of a concentration-inhibition curve. What is called EC50 is the concentration giving half of the maximal effect. Broadly, the MRT is a mean duration of stay, worked out from the concentration-time curve. A word on the bioavailability: it is dose-corrected exposure relative to a reference, in per cent. Usually Papp stands for the rate of passage across a membrane or cell layer, normalised by area and donor concentration.

Sequence of CYP3A4 (P08684 whole entry): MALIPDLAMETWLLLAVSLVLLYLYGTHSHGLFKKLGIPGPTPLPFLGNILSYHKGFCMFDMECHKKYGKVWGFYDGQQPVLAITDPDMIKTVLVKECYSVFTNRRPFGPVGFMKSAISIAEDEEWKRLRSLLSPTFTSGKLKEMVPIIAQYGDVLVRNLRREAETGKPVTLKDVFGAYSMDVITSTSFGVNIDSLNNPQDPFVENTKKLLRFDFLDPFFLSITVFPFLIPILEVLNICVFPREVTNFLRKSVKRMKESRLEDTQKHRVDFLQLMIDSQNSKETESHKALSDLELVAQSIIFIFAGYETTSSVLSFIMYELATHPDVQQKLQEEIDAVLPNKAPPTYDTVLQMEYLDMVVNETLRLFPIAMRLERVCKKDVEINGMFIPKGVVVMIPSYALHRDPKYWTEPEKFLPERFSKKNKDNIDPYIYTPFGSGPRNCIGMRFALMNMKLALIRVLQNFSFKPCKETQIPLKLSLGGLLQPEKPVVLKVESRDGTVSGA

Regarding `CC(F)(F)CC[C@H](NC(=O)[C@@H]1CC2(CCCCC2)CN1C(=O)[C@@H](NC(=O)OCc1ccccc1)C1CCCCC1)C(=O)C(=O)NC1CC1`, the IC50 in data set [1] was determined as 16 nM.

For `COC(=O)N[C@H](C(=O)N1CC2(CCCCC2)C[C@H]1C(=O)N[C@@H](CCC(C)(F)F)C(=O)C(N)=O)C(C)(C)C`, in data set [1], the IC50 came out at 25 nM. The same molecule gave an EC50 in data set [2] above 30000 nM. Further, the IC50 shift at 0.5 h in data set [3] is above 1.

In data set [4], `CNC(=O)C(=O)[C@H](CCC(C)(F)F)NC(=O)[C@@H]1C[C@H](C(F)(F)F)CCN1C(=O)[C@@H](NC(=O)OC)C(C)(C)C` came in with an MRT of 3.1 h. Also, in data set [5], the bioavailability came out at 63%.

As for `CC(F)(F)CC[C@H](NC(=O)[C@@H]1CC2(CCCCC2)CN1C(=O)c1cc2ccccc2[nH]1)C(=O)C(=O)NC1CC1`, the IC50 in data set [1] amounted to 64 nM.

For `CC(C)(C)CC(=O)N1CC2(CCCCC2)C[C@H]1C(=O)N[C@@H](CCC(C)(F)F)C(=O)C(=O)NC1CC1`, the IC50 in data set [1] was determined as 890 nM.

On to `COC(=O)N[C@H](C(=O)N1CC2(C[C@H]1C(=O)N[C@@H](CCC(C)(F)F)C(=O)C(=O)NC1CC1)CC2(F)F)C(C)(C)C` (stereo partly drawn), for which, in data set [4], the MRT stood at 3.2 h.

Regarding `CC(F)(F)CC[C@H](NC(=O)[C@@H]1[C@@H]2[C@H](CN1C(=O)[C@@H](NC(=O)NC1(CS(=O)(=O)C(C)(C)C)CCCCC1)C(C)(C)C)C2(C)C)C(=O)C(=O)NC1CC1`, the IC50 in data set [1] worked out at 129 nM.

With `COC(=O)N[C@H](C(=O)N1C[C@@H]2CCC[C@@H]2[C@H]1C(=O)N[C@@H](CCC(C)(C)F)C(=O)C(=O)NC1CC1)C(C)(C)C`, the IC50 in data set [1] stood at 26 nM.

Consider `COc1cccc2[nH]c(C(=O)N[C@@H](CC(C)C)C(=O)N[C@@H](C[C@@H]3CCNC3=O)C(=O)CO)cc12` [PF-00835231], for which the bioavailability in data set [6] is below 2%.

Turning to `COC(=O)N[C@H](C(=O)N1CC2(CCCCC2)C[C@H]1C(=O)N[C@@H](CCC(C)(F)F)C(=O)C(=O)NC1CCCCC1)C(C)(C)C`, in data set [1], the IC50 was determined as 77 nM. In addition, the EC50 in data set [2] amounted to 2300 nM. The IC50 shift at 0.5 h in data set [3] is above 6.

On to `COC(=O)N[C@H](C(=O)N1CC2(CCOCC2)C[C@H]1C(=O)N[C@@H](CCC(C)(F)F)C(=O)C(=O)NC1CC1)C(C)(C)C`, for which the IC50 in data set [1] was found to be 297 nM.

`COC(=O)N[C@H](C(=O)N1CC2(CCCCC2)C[C@H]1C(=O)N[C@@H](CCC(F)F)C(=O)C(=O)NC1CC1)C(C)(C)C`: in data set [1], the IC50 was 123 nM.

Turning to `COC(=O)N[C@H](C(=O)N1CC2(CCCCC2)C[C@H]1C(=O)N[C@@H](CC1CC1(F)F)C(=O)C(=O)NC1CC1)C(C)(C)C` (stereo partly drawn), the IC50 in data set [1] is 355 nM.

As to `CNC(=O)C(=O)[C@H](CCC(C)(F)F)NC(=O)[C@@H]1CC2(CCCCC2)CN1C(=O)[C@@H](NC(=O)OC)C(C)(C)C`, the response in data set [2] was half-maximal at 5800 nM (EC50). Moreover, in data set [3], the IC50 shift at 0.5 h was above 1.6.

Consider `CC(C)(C)NC(=O)N[C@H](C(=O)N1C[C@H]2[C@@H]([C@H]1C(=O)N[C@@H](C[C@@H]1CCNC1=O)C(=O)C(N)=O)C2(C)C)C(C)(C)C`, for which the Papp in data set [7] is below 1.13 ×10⁻⁶ cm/s. Also, the bioavailability in data set [8] was found to be 0.2%.

Consider `COC(=O)N[C@H](C(=O)N1CC2(CCCCC2)C[C@H]1C(=O)N[C@@H](CCC(C)(F)F)C(=O)C(=O)NC1CC1)C(C)(C)C`, for which the IC50 in data set [1] is 11 nM. The same molecule came in with a 50% effective concentration (EC50) in data set [2] of 6800 nM. The MRT in data set [4] was determined as 0.8 h. The bioavailability in data set [5] came to 26%. Besides, in data set [3], the IC50 shift at 0.5 h is above 1.3.

In turn, `CC(C)C[C@H](NC(=O)OCc1ccccc1)C(=O)N[C@@H](C[C@@H]1CCNC1=O)C(O)S(=O)(=O)[O-].[Na+]` (stereo partly drawn) showed a bioavailability in data set [8] of 3%.

As to `COC(=O)N[C@H](C(=O)N1C[C@@H]2CCC[C@@H]2[C@H]1C(=O)N[C@@H](CC[C@H](C)F)C(=O)C(=O)NC1CC1)C(C)(C)C`, the IC50 in data set [1] is 23 nM.

Turning to `COC(=O)N[C@H](C(=O)N1CC2(CCCCC2)C[C@H]1C(=O)N[C@@H](CCC(F)(F)F)C(=O)C(=O)NC1CC1)C(C)(C)C`, the IC50 in data set [1] was determined as 382 nM.

For the molecule `COC(=O)N[C@H](C(=O)N1C[C@H]2[C@@H]([C@H]1C(=O)N[C@@H](CCC(C)(F)F)C(=O)C(=O)NC1CC1)C21CCOCC1)C(C)(C)C`, the MRT in data set [4] was found to be 2.4 h. For the same molecule, the bioavailability in data set [5] was found to be 40%.

In data set [4], `COC(=O)N[C@H](C(=O)N1CC[C@@H](C(F)(F)F)C[C@H]1C(=O)N[C@@H](CCC(C)(F)F)C(=O)C(=O)NC1CC1)C(C)(C)C` showed an MRT of 8.6 h. The molecule also had a bioavailability in data set [5] of 40%.

Molecule `COC(=O)N[C@H](C(=O)N1CC2(CCCCC2)C[C@H]1C(=O)N[C@@H](CCC(C)(F)F)C(=O)C(=O)NCc1ccccc1)C(C)(C)C` registered an EC50 in data set [2] of 3900 nM. Moreover, in data set [3], the IC50 shift at 0.5 h was above 3.1.

Take `COC(=O)N[C@H](C(=O)N1C[C@@H]2CCC[C@@H]2[C@H]1C(=O)N[C@@H](CC[C@@H](C)F)C(=O)C(=O)NC1CC1)C(C)(C)C`: the IC50 in data set [1] stood at 11 nM.

Consider `COC(=O)N[C@H](C(=O)N1C[C@@H]2CCC[C@@H]2[C@H]1C(=O)N[C@@H](CCC(C)(F)F)C(=O)C(=O)NC1CC1)C(C)(C)C`, for which, in data set [4], the MRT was 2.7 h. Further, the bioavailability in data set [5] was found to be 47%.

`CCCC[C@H](NC(=O)[C@@H]1CC2(CCCCC2)CN1C(=O)[C@@H](NC(=O)OC)C(C)(C)C)C(=O)C(=O)NC1CC1`: in data set [1], the IC50 turned out to be 715 nM.

On to `CC(F)(F)CC[C@H](NC(=O)[C@@H]1CC2(CCCCC2)CN1C(=O)C(O)c1cccc(F)c1)C(=O)C(=O)NC1CC1` (stereo partly drawn), for which the IC50 in data set [1] worked out at 56 nM.

For the molecule `COC(=O)N[C@H](C(=O)N1CC2(CCCCC2)C[C@H]1C(=O)N[C@@H](CCC(C)(F)F)C(=O)C(=O)NCc1ccncc1)C(C)(C)C`, in data set [1], the IC50 was determined as 30 nM. Besides, the EC50 in data set [2] is above 30000 nM. Further, the IC50 shift at 0.5 h in data set [3] is around 1.

The molecule `COC(=O)N[C@H](C(=O)N1CCC2(CC2)C[C@H]1C(=O)N[C@@H](CCC(C)(F)F)C(=O)C(=O)NC1CC1)C(C)(C)C` had an MRT in data set [4] of 3.6 h. Moreover, the bioavailability in data set [5] is 60%. The Papp in data set [7] came out at 16 ×10⁻⁶ cm/s.

On to `COC(=O)N[C@H](C(=O)N1CC2(CCC(F)(F)CC2)C[C@H]1C(=O)N[C@@H](CCC(C)(F)F)C(=O)C(=O)NC1CC1)C(C)(C)C`, for which the IC50 in data set [1] is 270 nM.
